One data set deals with Pimephales promelas. As to conditions: chronic/long-term; duration: 32 days; growth.
A further data set relates to Cyprinus carpio. As to conditions: acute; duration: 96 hours; mortality.
The test system of another data set is Anas platyrhynchos. As to conditions: oral, mortality.
The subject of the next data set is Colinus virginianus. As to conditions: acute, oral, mortality.
The test system of a further data set is Neomysis kadiakensis. As to conditions: chronic/long-term; duration: 28 days; reproduction.
The next data set deals with Daphnia magna. As to conditions: chronic/long-term; duration: 21 days; mortality.
For another data set, the system named is Mus musculus. As to conditions: acute; oral; mortality.
In another data set the test system is Tagia sp. As to conditions: acute; duration: 14 days; mortality.
For another data set, the system named is Apis mellifera. As to conditions: acute; duration: 24 hours; oral; unspecified; mortality.
The next data set relates to Typhlodromus pyri. The data set is described as follows: LR50; higher = less toxic. As to conditions: acute; duration: 48 hours; mortality.
The subject of the next data set is Aphidius rhopalosiphi. The data set is described as follows: LR50; higher = less toxic. As to conditions: acute; duration: 48 hours; mortality.

In brackets after ≈: the same amount, converted by molar mass.

By NOAEL is commonly meant the highest tested level that showed no adverse finding. On to `O=c1ccc(C(F)(F)F)c[nH]1` [5-(Trifluoromethyl)pyridin-2(1H)-one], for which the NOAEL in the data set on Rattus norvegicus (developmental, development) was determined as 60 mg/kg-day.
Consider `CCCCOC(=O)[C@@H](C)Oc1ccc(Oc2ccc(C(F)(F)F)cn2)cc1` [Fluazifop-P-butyl], for which the results for the NOEC with Pimephales promelas, in the data set on Neomysis kadiakensis and in the data set with Daphnia magna were 0.077 mg/L, 0.0477 mg/L and 0.25 mg/L, respectively. Further, the LC50 in the data set with Cyprinus carpio is 1.31 mg/L (≈ 3.42 µM); with Anas platyrhynchos (short-term, feed), more than 942 mg/kg-day; in the data set on Colinus virginianus (diet), more than 1070 mg/kg-day; with Tagia sp., more than 1000 mg/kg. Further, the LD50 was more than 3960 mg/kg-day in the data set with Anas platyrhynchos (acute, unspecified); more than 2000 mg/kg-day with Colinus virginianus; more than 2000 mg/kg-day in the data set with Mus musculus; more than 200 µg/piece in the data set with Apis mellifera. Besides, the no observed adverse effect level (NOAEL) with Rattus norvegicus (chronic, duration: 2 years) was determined as 1 mg/kg-day; with Rattus norvegicus (developmental, development), 2 mg/kg-day; with Rattus norvegicus (reproduction developmental, reproduction), 6.72 mg/kg-day; in the data set with Rattus norvegicus (subchronic, duration: 90 days, oral), 0.9 mg/kg-day. Moreover, the LR50 with Typhlodromus pyri came out at 5.6 g/ha; in the data set on Aphidius rhopalosiphi it was 177 g/ha.
In the case of `CC(Oc1ccc(Oc2ccc(C(F)(F)F)cn2)cc1)C(=O)O` (centres undefined) [Fluazifop], in the data set with Rattus norvegicus (chronic, duration: 2 years), the NOAEL worked out at 1 mg/kg-day.
